Series [1] deals with T1, p38 MAPKα isoform (MAPK14) (Homo sapiens, UniProt Q16539).
T1 construct: purchased Life Technologies
The experiment in a line: p38 MAPKα enzyme inhibition (Z-LYTE FRET). The conditions noted are these: Table 2A; read-out: IC50 Values for Enzyme Inhibition p38 MAPKα. Format: biochemical. The method, boiled down: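 Recombinant human MAPK14 (40 ng/mL stock) was preincubated 2 h at RT with compound (stock dilutions 0.0012-40 μg/mL). The Z-LYTE FRET read-out used a MAPKAP-K2-derived peptide, and protease development for 1 h cleaved only non-phosphorylated peptide. Phosphorylation was calculated from the coumarin/fluorescein emission ratio.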

Another series concerns the target T2, c-Src (Homo sapiens, UniProt P12931).
T2 construct: purchased Life Technologies
Briefly: c-Src enzyme inhibition (Z-LYTE FRET). Format: biochemical. To be noted: Table 2A. The procedure:
(§1) The enzyme inhibitory activities of compounds disclosed herein were determined by FRET using synthetic peptides labelled with both donor and acceptor fluorophores (Z-LYTE, Life Technologies, Paisley, UK).
(§2) The relevant enzyme (1000 ng/mL, 1400 ng/mL or 2000 ng/mL respectively, 2.5 μL) was incubated with the test compound (either 40 μg/mL, 12 μg/mL, 4 μg/mL, 1.2 μg/mL, 0.4 μg/mL, 0.12 μg/mL, 0.04 μg/mL, 0.012 μg/mL, 0.004 μg/mL or 0.0012 μg/mL, 2.5 μL each) for 2 h at RT. The FRET peptides (8 μM, 2.5 μL), and appropriate ATP solutions (2.5 μL, 800 μM for c-Src, and 60 μM ATP for HCK and Syk) were then added to the enzyme/compound mixtures and incubated for 1 h at RT. Development reagent (protease, 5 μL) was added for 1 h prior to detection in a fluorescence microplate reader (EnVision, Perkin Elmer).
(§3) In all cases, the site-specific protease cleaves non-phosphorylated peptide only and eliminates the FRET signal. Phosphorylation levels of each reaction were calculated using the ratio of coumarin emission (donor) over fluorescein emission (acceptor), for which low ratios indicate high phosphorylation and high ratios indicate low phosphorylation levels.

A further series deals with T3, Syk (Homo sapiens, UniProt P43405).
T3 construct: purchased Life Technologies
The experiment in a line: Syk enzyme inhibition (Z-LYTE FRET). Format: biochemical. To be noted: Table 2A. The procedure: as §1, §2, §3

A further series concerns the target T4, GSK 3α enzyme isoform (Homo sapiens, UniProt P49840).
T4 construct: purchased Life Technologies
Briefly: GSK 3α enzyme inhibition (Z-LYTE FRET). To be noted: Table 2A; read-out: IC50 Values for Enzyme Inhibition GSK3α. The class given is biochemical. How it is done:
as §1
The GSK3a protein (500 ng/mL, 2.5 μL) was incubated with the test compound (2.5 μL at either 40 μg/mL, 12 μg/mL, 4 μg/mL, 1.2 μg/mL, 0.4 μg/mL, 0.12 μg/mL, 0.04 μg/mL, 0.012 μg/mL, 0.004 μg/mL or 0.0012 μg/mL) for 2 h at RT. The FRET peptide (8 μM, 2.5 μL), which is a phosphorylation target for GSK3α, and ATP (40 μM, 2.5 μL) was then added to the enzyme/compound mixture and the resulting mixture incubated for 1 h at RT. Development reagent (protease, 5 μL) was added for 1 h prior to detection in a fluorescence microplate reader (EnVision, Perkin Elmer).
as §3

In series [2] the test system is IL-8 release in d-U937 cells. Briefly: LPS-induced IL-8 release in d-U937 cells. The conditions noted are these: Homo sapiens, dU937, LPS 0.1 μg/mL 4 h. Format: cell-based. The procedure:
(§4) U937 cells, a human monocytic cell line, were differentiated into macrophage-type cells by incubation with PMA (100-200 ng/mL) for 48 to 72 h. Cells were pre-incubated with final […] concentrations of test compound for 2 h and were then stimulated with LPS (0.1 μg/mL; from E. coli: O111:B4, Sigma) for 4 h. The supernatant was collected for determination of TNFα and IL-8 concentrations by sandwich ELISA (Duo-set, R&D systems). […] The relative 50% effective concentration (REC50) was determined from the resultant concentration-response curve. The inhibition of IL-8 production was calculated at each concentration of test compound by comparison with vehicle control.

For series [3], the system named is TNFα release in d-U937 cells. Briefly: LPS-induced TNFα release in d-U937 cells. Further: relative to 10 µg/mL BIRB-796. Format: cell-based. To be noted: Homo sapiens, dU937; read-out: LPS Induced Release TNFα REC50 (dU937). How it is done: as §4
A further series concerns d-U937 cells. Briefly: Cell viability: MTT assay in differentiated U937 cells. The class given is cell-based, human. To be noted: 10 μg/mL. The method, boiled down:
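Differentiated U937 cells exposed to compound at a final 10 μg/mL, either 4 h in 5% FCS RPMI1640 or 24 h in 10% FCS RPMI1640. MTT added for 1 h, formazan dissolved in DMSO, absorbance read at 550 nm; % viability loss relative to 0.5% DMSO vehicle, with increases shown as negative values.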
Background: Tetrazolium assays rely on reduction of a dye to a coloured formazan, in cell work by metabolically active cells.

The structures appear in SMILES notation.

In general, IC50 refers to the concentration that gives 50% inhibition.

T1 sequence (Q16539 whole entry, canonical isoform): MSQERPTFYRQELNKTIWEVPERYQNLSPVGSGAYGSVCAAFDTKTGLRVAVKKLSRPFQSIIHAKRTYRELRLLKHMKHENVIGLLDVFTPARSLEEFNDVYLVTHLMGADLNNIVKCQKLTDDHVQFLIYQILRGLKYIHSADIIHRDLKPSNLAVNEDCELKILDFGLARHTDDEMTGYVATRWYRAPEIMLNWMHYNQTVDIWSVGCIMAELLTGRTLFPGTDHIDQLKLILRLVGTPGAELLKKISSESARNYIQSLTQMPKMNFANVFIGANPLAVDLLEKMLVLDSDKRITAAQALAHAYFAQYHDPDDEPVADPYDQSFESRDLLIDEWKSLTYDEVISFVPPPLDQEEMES
T2 sequence (P12931 whole entry): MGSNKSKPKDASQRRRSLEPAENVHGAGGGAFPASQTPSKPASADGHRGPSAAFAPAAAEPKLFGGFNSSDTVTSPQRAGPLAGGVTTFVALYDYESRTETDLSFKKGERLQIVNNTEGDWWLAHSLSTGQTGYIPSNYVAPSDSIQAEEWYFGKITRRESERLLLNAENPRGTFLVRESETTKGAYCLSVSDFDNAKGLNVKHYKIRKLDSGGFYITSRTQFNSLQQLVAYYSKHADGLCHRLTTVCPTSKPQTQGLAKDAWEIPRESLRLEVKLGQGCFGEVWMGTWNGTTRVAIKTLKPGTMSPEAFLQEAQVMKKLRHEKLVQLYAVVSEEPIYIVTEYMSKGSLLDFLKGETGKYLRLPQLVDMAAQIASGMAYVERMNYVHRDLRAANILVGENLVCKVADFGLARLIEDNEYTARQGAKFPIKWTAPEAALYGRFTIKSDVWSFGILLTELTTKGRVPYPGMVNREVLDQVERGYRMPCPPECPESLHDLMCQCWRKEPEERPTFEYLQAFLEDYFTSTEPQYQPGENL
T4 sequence (P49840 whole entry, canonical isoform): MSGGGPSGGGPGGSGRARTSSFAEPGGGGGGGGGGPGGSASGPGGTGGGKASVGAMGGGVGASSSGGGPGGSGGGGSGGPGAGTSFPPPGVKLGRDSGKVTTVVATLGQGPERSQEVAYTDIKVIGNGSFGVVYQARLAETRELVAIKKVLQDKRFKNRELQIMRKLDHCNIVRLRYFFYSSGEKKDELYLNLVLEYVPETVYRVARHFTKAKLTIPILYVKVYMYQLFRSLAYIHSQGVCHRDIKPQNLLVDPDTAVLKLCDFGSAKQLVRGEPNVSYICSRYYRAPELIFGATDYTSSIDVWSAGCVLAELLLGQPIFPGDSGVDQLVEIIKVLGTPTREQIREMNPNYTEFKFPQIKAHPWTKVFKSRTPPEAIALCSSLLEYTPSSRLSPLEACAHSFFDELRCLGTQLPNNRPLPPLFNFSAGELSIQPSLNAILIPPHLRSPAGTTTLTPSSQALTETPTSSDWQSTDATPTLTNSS

For `Cc1ccc(-n2nc(C(C)(C)C)cc2NC(=O)Nc2ccc(OCc3ccnc(Nc4cncc(CC(=O)N(C)C)n4)c3)c3ccccc23)cc1` [Example 8, 2-(6-((4-(((4-(3-(3-(tert-butyl)-1-(p-tolyl)-1H-pyrazol-5-yl)ureido)naphthalen-1-yl)oxy)methyl)pyridin-2-yl)amino)pyrazin-2-yl)-N,N-dimethylacetamide], the IC50 is 1 nM in series [1]; 32 nM against c-Src; above 14600 nM at Syk; 138 nM on GSK 3α enzyme isoform; 10.3 nM in series [2]. Moreover, the EC50 in series [3] was 3.9 nM. Moreover, in the series with d-U937 cells, the “MTT Assay Cell viability at time point indicated in d-U937 Cells, 4 h” value (“MTT Assay Cell viability … in d-U937 Cells, 4 h” for short) is “− (−ve and +ve indicate the value is below and above, respectively, the no significant effect threshold defined as 30% inhibition at 10 μg/mL at the time point indicated)”. In the series with d-U937 cells, the “MTT Assay Cell viability at time point indicated in d-U937 Cells, 24 h” value (“MTT Assay Cell viability … 24 h” for short) is “+ (−ve and +ve indicate the value is below and above, respectively, the no significant effect threshold defined as 30% inhibition at 10 μg/mL at the time point indicated)”.

`Cc1ccc(-n2nc(C(C)(C)C)cc2NC(=O)Nc2ccc(OCc3ccnc(Nc4cnc(C(=O)N(C)C)cn4)c3)c3ccccc23)cc1` [Example 9, 5-((4-(((4-(3-(3-(tert-Butyl)-1-(p-tolyl)-1H-pyrazol-5-yl)ureido)naphthalen-1-yl)oxy)methyl)pyridin-2-yl)amino)-N,N-dimethylpyrazine-2-carboxamide]: the IC50 was 134 nM in series [1]; 2510 nM against c-Src; above 14900 nM at Syk; 3320 nM on GSK 3α enzyme isoform; 8.8 nM in series [2]. Besides, in series [3], the EC50 was determined as 1.3 nM. The “MTT Assay Cell viability … in d-U937 Cells, 4 h” value in the series with d-U937 cells is “− (−ve and +ve indicate the value is below and above, respectively, the no significant effect threshold defined as 30% inhibition at 10 μg/mL at the time point indicated)”. The “MTT Assay Cell viability … 24 h” value in the series with d-U937 cells is “− (−ve and +ve indicate the value is below and above, respectively, the no significant effect threshold defined as 30% inhibition at 10 μg/mL at the time point indicated)”.

For `Cc1ccc(-n2nc(C(C)(C)C)cc2NC(=O)Nc2ccc(OCc3ccnc(Nc4cnc(CO)cn4)c3)c3ccccc23)cc1` [Example 10, 1-(3-(tert-Butyl)-1-(p-tolyl)-1H-pyrazol-5-yl)-3-(4-((2-((5-(hydroxymethyl)pyrazin-2-yl)amino)pyridin-4-yl)methoxy)naphthalen-1-yl)urea], the IC50 in series [1] is 8 nM; on c-Src, 47 nM; against Syk, above 15900 nM; on GSK 3α enzyme isoform, above 15900 nM; in series [2], 15.3 nM. Further, the EC50 in series [3] came to 2.8 nM. Further, the “MTT Assay Cell viability … in d-U937 Cells, 4 h” value in the series with d-U937 cells was “− (−ve and +ve indicate the value is below and above, respectively, the no significant effect threshold defined as 30% inhibition at 10 μg/mL at the time point indicated)”. Moreover, the “MTT Assay Cell viability … 24 h” value in the series with d-U937 cells was “− (−ve and +ve indicate the value is below and above, respectively, the no significant effect threshold defined as 30% inhibition at 10 μg/mL at the time point indicated)”.

Regarding `Cc1ccc(-n2nc(C(C)(C)C)cc2NC(=O)Nc2ccc(OCc3ccnc(Nc4cncc(C#N)n4)c3)c3ccccc23)cc1` [Example 11], the IC50 in series [1] was 52 nM; against c-Src, 600 nM; against Syk, above 16000 nM; at GSK 3α enzyme isoform, above 16000 nM; in series [2], 12.5 nM. Also, the EC50 in series [3] was determined as 2.3 nM. Further, the “MTT Assay Cell viability … in d-U937 Cells, 4 h” value in the series on d-U937 cells is “− (−ve and +ve indicate the value is below and above, respectively, the no significant effect threshold defined as 30% inhibition at 10 μg/mL at the time point indicated)”. In addition, in the series with d-U937 cells, the “MTT Assay Cell viability … 24 h” value was “− (−ve and +ve indicate the value is below and above, respectively, the no significant effect threshold defined as 30% inhibition at 10 μg/mL at the time point indicated)”.

In the case of `COc1ccc(-n2nc(C(C)(C)C)cc2NC(=O)Nc2ccc(OCc3ccnc(Nc4cnccn4)c3)c3ccccc23)cn1` [Example 12], the concentration for half-maximal inhibition (IC50) was 14 nM in series [1]; 105 nM against c-Src; above 16200 nM against Syk; above 16200 nM on GSK 3α enzyme isoform; 9.3 nM in series [2]. The EC50 in series [3] came out at 16.8 nM. In the series on d-U937 cells, the “MTT Assay Cell viability … in d-U937 Cells, 4 h” value is “− (−ve and +ve indicate the value is below and above, respectively, the no significant effect threshold defined as 30% inhibition at 10 μg/mL at the time point indicated)”. Also, the “MTT Assay Cell viability … 24 h” value in the series on d-U937 cells is “− (−ve and +ve indicate the value is below and above, respectively, the no significant effect threshold defined as 30% inhibition at 10 μg/mL at the time point indicated)”.

`Cc1ccc(-n2nc(C(C)(C)C)cc2NC(=O)Nc2ccc(OCc3ccnc(Nc4cnccn4)c3)c3ccccc23)s1` [Example 13]: the IC50 was 9 nM in series [1]; 129 nM against c-Src; above 16500 nM on Syk; above 14700 nM at GSK 3α enzyme isoform; 7.8 nM in series [2]. In addition, the EC50 in series [3] stood at 18.2 nM. In addition, in the series on d-U937 cells, the “MTT Assay Cell viability … in d-U937 Cells, 4 h” value was “− (−ve and +ve indicate the value is below and above, respectively, the no significant effect threshold defined as 30% inhibition at 10 μg/mL at the time point indicated)”. In the series with d-U937 cells, the “MTT Assay Cell viability … 24 h” value was “− (−ve and +ve indicate the value is below and above, respectively, the no significant effect threshold defined as 30% inhibition at 10 μg/mL at the time point indicated)”.

Turning to `Cc1ccc(-n2nc(C(C)(C)C)cc2NC(=O)Nc2ccc(OCc3ccnc(Nc4cncc(N(C)C)n4)c3)c3ccccc23)cc1` [Example 14], the IC50 in series [1] is 12 nM; against c-Src, 29 nM; at Syk, above 15600 nM; at GSK 3α enzyme isoform, 3370 nM; in series [2], 5.5 nM. For the same compound, in series [3], the EC50 came out at 2.9 nM. In addition, the “MTT Assay Cell viability … in d-U937 Cells, 4 h” value with d-U937 cells is “− (−ve and +ve indicate the value is below and above, respectively, the no significant effect threshold defined as 30% inhibition at 10 μg/mL at the time point indicated)”. In the series with d-U937 cells, the “MTT Assay Cell viability … 24 h” value is “− (−ve and +ve indicate the value is below and above, respectively, the no significant effect threshold defined as 30% inhibition at 10 μg/mL at the time point indicated)”.

Consider `Cc1ccc(-n2nc(C(C)(C)C)cc2NC(=O)Nc2ccc(OCc3ccnc(Nc4cncc(C5CC5)n4)c3)c3ccccc23)cc1` [Example 15], for which the IC50 was 96 nM in series [1]; 34 nM at c-Src; above 15700 nM against Syk; 3650 nM at GSK 3α enzyme isoform; 1.9 nM in series [2]. In series [3], the EC50 was 2.1 nM. For the same compound, in the series with d-U937 cells, the “MTT Assay Cell viability … in d-U937 Cells, 4 h” value was “− (−ve and +ve indicate the value is below and above, respectively, the no significant effect threshold defined as 30% inhibition at 10 μg/mL at the time point indicated)”. Further, the “MTT Assay Cell viability … 24 h” value in the series on d-U937 cells was “− (−ve and +ve indicate the value is below and above, respectively, the no significant effect threshold defined as 30% inhibition at 10 μg/mL at the time point indicated)”.

Values taken from patent publication US11142515B2, “Pyrazolyl-ureas as kinase inhibitors” (RESPIVERT LIMITED, priority 2014, dated 2021).
